Experimental data from patent publication US9034387B2, “Intrinsically fluorescent carbon nanospheres and a process thereof” (priority 2007, dated 2015).

Test system: acetylated histone H3 in HeLa cells
Experiment: Immunofluorescence analysis using acetylated H3 antibody
Assay type: cell-based
Conditions: CTPB alone at 300 μM, compared with untreated cells
Source text: FIG. 3. Small molecule HAT activator binds to the CSP and induces hyperacetylation within HeLa cells. (a) X-ray crystal structure of CTPB showing the ball and stick model view of the compound. The color coding of the atoms is as follows: light blue, carbon; white, hydrogen; red, oxygen; grey, fluorine; green, chlorine; dark blue, nitrogen. (b) SEM image of the carbon spheres, adsorbed with CTPB (Panel I). A specific area of the sample was excited with the electron beam of energy suitable for the constituent elements to emit the X-rays of their characteristic wavelength. […] (c)-(d) Top panel represents the confocal image of HeLa cells, Bottom panel represents intensity profile of the image arising from Hoechst stained nuclei shown as blue peak, Fluorescence intensity of CSP is shown as light green peak, Fluorescence intensity from Alexa 488 fluor antibody is shown as dark green peak. HeLa cells, (3c, I) untreated, stained with Hoechst dye; (3c, II) treated with CSP, where carbon sphere fluorescence always overlap with the nuclear region, showing that the nanosphere localized within the nucleus specifically; (3c, III) untreated, probed with antibody against acetylated histone H3; (3c, IV) treated with HAT activator CTPB (300 μM), probed with antibody against acetylated histone H3. […]

## CCOc1ccccc1C(=O)Nc1ccc(Cl)c(C(F)(F)F)c1 [CTPB, 4-chloro-3-trifluoromethylphenyl-2-ethoxybenzamide]
  acetylation level (acetylated H3 immunofluorescence), result in words: did not show any difference
